Reference: US20080207532A1, “Use of Nordihydroguaiaretic Acid Derivatives in the Treatment of Drug Resistant Cancer, Viral and Microbial Infection” (Johns Hopkins University, priority 2004, published 2008)

Tested on: MDR1 mRNA and Pgp
Test: Dox induction of MDR1 gene expression in MCF-7 cells
Format: cell-based, human
Conditions: MCF-7, 0.05 μM Dox with 5.0 μM M4N, two days
Description: Total RNA was isolated using the Trizol Reagent (Invitrogen, Carlsbad, Calif.). RT-PCR was carried out with the Superscript II One-Step RT-PCR system with Platinum Taq DNA Polymerase (Invitrogen) according to the manufacturer's protocol using oligonucleotide primers specific for MDR1: […]
Cultured cells were incubated in a solution of 10 mM EDTA and 10 mM EGTA in PBS and then harvested by scraping with a Teflon® cell scraper. The cells were pelleted and lysed in modified RIPA buffer [50 mM Tris-HCl (pH 7.4), 1% NP-40, 0.25% Na-deoxycholate, 150 mM NaCl, 1 mM EDTA (pH 8.0)] containing Protease Inhibitor Cocktail (Sigma Chemical Co.). The lysate was cleared by centrifligation and protein concentrations were determined with the Bio-Rad Protein Assay (Bio-Rad Laboratories, Hercules, Calif.). Protein samples were separated by SDS-PAGE and electroblofted to a Hybond enhanced chemiluminescence (ECL) nitrocellulose membrane (Amersham) with a semidry blotting apparatus and detected as described in the instruction manual of the ECL Western Blotting System (Amersham). The antibodies used were primary rabbit polyclonal antibodies against Pgp and cyclin B and a horseradish […] conjugated secondary antibody (Santa Cruz Biotechnology). Relative band intensities were measured with ImageJ software. […]

## COc1ccc(C[C@@H](C)[C@@H](C)Cc2ccc(OC)c(OC)c2)cc1OC [M4N, tetra-o-methyl nordihydroguaiaretic acid]
  induction of MDR1 expression by Dox: abolished
